Data: publication PMC4830892, “A microarray-based approach to evaluate the functional significance of protein-binding motifs” (Analytical and Bioanalytical Chemistry, 2016)
Non-standard residues stand in square brackets, D forms with d. Residues, ends and D or L forms follow the SMILES beside them. pY = N[C@@H](Cc1ccc(OP(=O)(O)O)cc1)C(=O)O; Ahx = NCCCCCC(=O)O

Experiments:
[1] = system: proteins in Jurkat cell lysate (total cellular proteome); assay: Competition of α-pY antibody binding with Jurkat cell lysate on peptide microarrays; conditions: for Kd: from EC50 and Kd α-pY by Cheng-Prusoff equation (Eq. 4), ± standard deviation
Protocol: (§1) Peptides that correspond to known interaction motifs involved in the formation of protein complexes in T cell signalling were purchased from EMC microcollections (Tübingen, Germany). All peptides carried an extra cysteine residue and a free N-terminus for immobilisation on the microarray substrates and a C-terminal amidation (see Electronic Supplementary Material (ESM), Table S1).
(§2) For generation of microarrays, peptide stock solutions (3 mM) in DMF were diluted 30 times with phosphate buffer (100 mM, pH 8) supplemented with 0.006 % (v/v) Triton X-100. N-Hydroxysuccinimide-preactivated slides served as substrates for immobilisation (Nexterion Slide H, Schott Nexterion/Peq-Lab, Erlangen, Germany) using a Nano-Plotter NP2.0 (GeSIM, Großerkmannshof, Germany), which employs piezo-driven pipetting tips to dispense peptide solutions. Microarray slides comprised 16 subarrays of doublets of each peptide. For each peptide, a volume of 1.2 nl was dispensed at a centre-to-centre spacing of 500 μm. During printing, temperature was maintained at 15 °C and air humidity at 65 %.
Jurkat T cell leukaemia cells were maintained in RPMI 1640 medium (PAN-Biotech, Aisenbach, Germany) supplemented with 10 % foetal calf serum at 37 °C in 5 % CO2. For the preparation of lysates, cells were resuspended in lysis buffer (1 % Triton X-100, 50 mM n-octyl-D-glucopyranoside (Fluka, Taufkirchen, Germany), 20 mM Tris, 1 mM EDTA, 150 mM NaCl, 1 mM Na3VO4, pH 7.5, and complete protease inhibitor cocktail (Roche Applied Science, Mannheim, Germany)). Incubation on ice for 1 h was followed by centrifugation at 20,000×g at 4 °C for 15 min to remove cell debris. Transmembrane proteins were extracted from lipid rafts by using N-octyl-D-glucopyranoside. Protein concentrations were measured by Bradford Assay.
(§3) Sixteen incubation chambers with identical subarrays consisting of peptides derived from binding motifs of signalling proteins (see ESM Table S1) were generated by attaching a clip-on frame to the microarray substrate (ProPlate Multiarray System, Grace Biolabs, Molecular Probes, Eugene, OR, USA). The typical incubation volume for the subarrays was 50 μl. Microarrays were either incubated with an α-pY antibody (α-pTyr 100, 9411, Cell Signalling, Frankfurt am Main, Germany) at the indicated concentrations or co-incubated with cell lysate at the indicated concentrations for 3 h at 4 °C. Additionally, in another set of experiments, recombinant GRB2-SH2 was incubated on microarrays alone or co-incubated with cell lysate employing an α-penta HIS antibody (34600, Qiagen, Hilden, Germany) for the detection of His-tagged GRB2-SH2.
(§4) After incubation, microarrays were washed three times with washing buffer (PBS, 0.05 % (w/v) BSA, 0.05 % (w/v) Tween-20). For the detection of signals, microarrays were incubated with a secondary α-mouse antibody conjugated with Alexa633 (A-21050, Invitrogen) at a concentration of 1 μg/ml for 15 min at RT followed by a last washing step with washing buffer. Microarrays were dried with nitrogen and scanned using a ProScanArray (PerkinElmer Life Sciences, Waltham, Massachusetts), and the data were analysed using ArrayPro Analyzer software (Media Cybernetics, Silver Spring, USA) as described before. Final data represented the mean signal intensities corrected for the median of a ring-shaped local background surrounding the respective peptide spot. Titrations with α-pY antibody and GRB2-SH2 were performed to calculate dissociation constants (see below).
For determination of EC50 values for competition with cell lysate, curves were fitted according to2 y=y0+Ae^−x/t with y0 as the signal intensity of the α-pY antibody or the recombinant GRB2-SH2 domain without cell lysate, A the amplitude, x the protein concentration in lysate, and t the decay constant. […]

[2] = target: α-phosphotyrosine antibody (α-pTyr 100); assay: Titration of α-pY antibody on peptide microarrays; assay type: binding; conditions: for Kd: peptide microarray, α-pY antibody 0.06 to 6.66 nM, 3 h at 4 °C, indirect immunofluorescence (Alexa633), bimolecular binding isotherm (Eq. 1), average ± standard deviation, six independent experiments; for α-pY titration curve / binding: result in words, R^2 of 0.8 as cutoff for a binder
Protocol: as §1, §2, §3, §4
The resulting titration curves were fitted with Origin (OriginLab Corporation, v.6.1057, Northampton, USA) using a binding isotherm for a bimolecular interaction (Eq. 1):1 Fabs=Fmaxprot/Kd+prot Fabs represents the intensity of a microarray spot after background correction and [prot] the concentration of the titrated binder. Kd and Fmax were obtained from the fits.
To render this approach quantitative, first the affinities of the α-pY antibody towards the phosphotyrosine motifs of the microarrays were determined. […] The titration curves were fitted with a binding isotherm for a bimolecular interaction (Eq. 1, Fig. 2a, Table 1). In general, a coefficient of determination (R^2) of 0.8 was used as a cutoff in order to score a peptide as a binder. […] Regarding the poly-proline motif (PP) containing peptides present on the microarray, only on the peptide GAB2-509 in five experiments, a titration curve with an R^2 > 0.8 could be generated.

[3] = system: SH2 domain of GRB2 (GRB2-SH2); conditions: Kd values of GRB2-SH2 described in recently published manuscript; ref [14]; cited from earlier work
Source text: In contrast, the data points for LATpY191 and SHP1pY564, and SigpY437, ZAPpY319 and CDζpY72/83 were above or below the linear correlation defined by the first four peptides. […] SigpY437, in contrast, is a poor binder for which already low concent ...

Row | Compound | Kd [1] [nM] | Kd [2] [nM] | affinity for / binding to cellular proteome (in words) ([1]; competition of α-pY with cell lysate, FYB peptides) | binding to GRB2 / GRB2-SH2 (in words) [3] | α-pY titration curve / binding [2]
1 | CC(C)C[C@H](NC(=O)[C@@H](NC(=O)[C@H](CC(=O)O)NC(=O)[C@H](Cc1ccc(OP(=O)(O)O)cc1)NC(=O)[C@H](CCC(=O)O)NC(=O)[C@H](CCC(=O)O)NC(=O)[C@H](CCCNC(=N)N)NC(=O)[C@H](CCCNC(=N)N)NC(=O)CNC(=O)[C@H](CC(C)C)NC(=O)[C@H](CC(N)=O)NC(=O)[C@H](CC(C)C)NC(=O)[C@H](CCC(=O)O)NC(=O)[C@H](CC(N)=O)NC(=O)[C@H](Cc1ccc(OP(=O)(O)O)cc1)NC(=O)[C@H](CC(C)C)NC(=O)[C@H](CCC(N)=O)NC(=O)[C@H](CC(N)=O)NC(=O)CCCCCNC(=O)[C@@H](N)CS)C(C)C)C(N)=O [CD3ζpY72/83] (H-C[Ahx]NQL[pY]NELNLGRREE[pY]DVL-NH2) | 25000 ± 27000 | 0.69 ± 0.61 | – | – | –
2 | CC(C)[C@H](NC(=O)[C@H](CC(=O)O)NC(=O)[C@H](CC(=O)O)NC(=O)[C@H](Cc1ccc(OP(=O)(O)O)cc1)NC(=O)[C@@H](NC(=O)[C@H](CCC(=O)O)NC(=O)[C@H](CCC(N)=O)NC(=O)[C@H](CC(=O)O)NC(=O)[C@H](CC(=O)O)NC(=O)[C@H](CCC(=O)O)NC(=O)[C@@H](N)CS)C(C)C)C(=O)N[C@@H](C)C(=O)N[C@@H](CCC(=O)O)C(=O)N[C@@H](CCC(N)=O)C(=O)N[C@@H](CC(=O)O)C(N)=O [FYBpY595] (H-CEDDQEV[pY]DDVAEQD-NH2) | – | 0.77 ± 0.28 | – | – | –
3 | CC[C@H](C)[C@H](NC(=O)CNC(=O)[C@H](CC(=O)O)NC(=O)[C@H](Cc1ccc(OP(=O)(O)O)cc1)NC(=O)[C@@H](NC(=O)[C@H](CC(=O)O)NC(=O)[C@H](CC(=O)O)NC(=O)[C@H](CC(=O)O)NC(=O)[C@@H](N)CS)[C@@H](C)CC)C(=O)N[C@@H](CCC(=O)O)C(=O)N[C@@H](CCC(=O)O)C(=O)N[C@@H](CCC(=O)O)C(=O)N[C@@H](CC(=O)O)C(N)=O [FYBpY625] (H-CDDDI[pY]DGIEEED-NH2) | 17000 ± 13000 | 0.46 ± 0.15 | – | – | –
4 | CSCC[C@H](NC(=O)[C@H](CC(=O)O)NC(=O)[C@H](CC(C)C)NC(=O)[C@@H](N)CS)C(=O)NCC(=O)N[C@@H](CC(=O)O)C(=O)N[C@@H](CCC(=O)O)C(=O)N[C@H](C(=O)N[C@@H](Cc1ccc(OP(=O)(O)O)cc1)C(=O)N[C@@H](CC(=O)O)C(=O)N[C@@H](CC(=O)O)C(=O)N[C@H](C(=O)N[C@@H](CC(=O)O)C(=O)N[C@H](C(=O)N[C@@H](CO)C(=O)N[C@@H](CC(=O)O)C(=O)N[C@@H](Cc1ccccc1)C(N)=O)[C@@H](C)O)C(C)C)C(C)C [FYBpY651] (H-CLDMGDEV[pY]DDVDTSDF-NH2) | 12000 ± 9000 | 0.28 ± 0.09 | – | – | –
5 | CC[C@H](C)[C@H](NC(=O)[C@H](CC(=O)O)NC(=O)[C@H](CC(=O)O)NC(=O)[C@H](Cc1ccc(OP(=O)(O)O)cc1)NC(=O)[C@@H](NC(=O)[C@H](CCC(=O)O)NC(=O)CNC(=O)[C@H](CC(=O)O)NC(=O)[C@H](CC(N)=O)NC(=O)[C@@H](N)CS)[C@@H](C)CC)C(=O)N[C@@H](C)C(=O)N[C@@H](CC(=O)O)C(=O)NCC(N)=O [FYBpY771] (H-CNDGEI[pY]DDIADG-NH2) | 5000 ± 1000 | 0.5 ± 0.23 | highest affinity of all four FYB peptides | – | –
6 | CC(C)C[C@H](NC(=O)[C@H](Cc1ccc(OP(=O)(O)O)cc1)NC(=O)CNC(=O)[C@@H]1CCCN1C(=O)[C@H](CC(N)=O)NC(=O)[C@H](Cc1c[nH]cn1)NC(=O)[C@H](Cc1ccc(O)cc1)NC(=O)[C@H](CC(=O)O)NC(=O)[C@H](CC(=O)O)NC(=O)[C@H](CCC(=O)O)NC(=O)[C@H](CC(=O)O)NC(=O)[C@H](CCC(=O)O)NC(=O)[C@@H](N)CS)C(=O)N[C@H](C(=O)N[C@H](C(=O)N[C@@H](CC(C)C)C(=O)N1CCC[C@H]1C(=O)N[C@@H](CC(=O)O)C(=O)N[C@@H](CO)C(=O)N[C@H](C(=O)N1CCC[C@H]1C(N)=O)[C@@H](C)O)C(C)C)C(C)C [LATpY132] (H-CEDEDDYHNPG[pY]LVVLPDSTP-NH2) | 11000 ± 13000 | 0.41 ± 0.38 | – | good binder | –
7 | CC(C)C[C@H](NC(=O)[C@H](CCC(=O)O)NC(=O)[C@H](CCC(N)=O)NC(=O)[C@H](CC(C)C)NC(=O)[C@H](CC(N)=O)NC(=O)[C@H](CCC(=O)O)NC(=O)[C@H](Cc1ccc(OP(=O)(O)O)cc1)NC(=O)[C@H](CC(=O)O)NC(=O)[C@@H]1CCCN1C(=O)[C@H](C)NC(=O)CNC(=O)[C@H](CCC(=O)O)NC(=O)[C@H](CCC(=O)O)NC(=O)[C@H](CCC(=O)O)NC(=O)[C@@H](NC(=O)[C@H](CCC(=O)O)NC(=O)[C@@H](N)CS)C(C)C)C(=O)N[C@@H](CC(N)=O)C(N)=O [LATpY226] (H-CEVEEEGAPD[pY]ENLQELN-NH2) | 15000 ± 11000 | 0.44 ± 0.27 | – | good binder | –
8 | CSCC[C@H](NC(=O)[C@@H]1CCCN1C(=O)[C@H](CC(N)=O)NC(=O)[C@H](C)NC(=O)[C@H](CCC(=O)O)NC(=O)[C@@H](NC(=O)[C@H](Cc1ccc(OP(=O)(O)O)cc1)NC(=O)[C@H](Cc1ccccc1)NC(=O)CNC(=O)[C@@H]1CCCN1C(=O)[C@H](CC(N)=O)NC(=O)[C@H](CCCNC(=N)N)NC(=O)CNC(=O)[C@H](CCC(=O)O)NC(=O)[C@@H](N)CS)C(C)C)C(=O)N1CCC[C@H]1C(=O)N[C@H](C(N)=O)[C@@H](C)O [PLCγpY783] (H-CEGRNPGF[pY]VEANPMPT-NH2) | 7000 ± 2000 | 0.55 ± 0.33 | – | good binder | –
9 | CC(C)C[C@H](NC(=O)[C@H](CCC(=O)O)NC(=O)[C@H](CCC(=O)O)NC(=O)[C@@H]1CCCN1C(=O)[C@H](CC(=O)O)NC(=O)[C@H](CO)NC(=O)[C@H](Cc1ccc(OP(=O)(O)O)cc1)NC(=O)[C@@H]1CCCN1C(=O)[C@H](CO)NC(=O)[C@H](CCC(=O)O)NC(=O)[C@H](Cc1ccc(O)cc1)NC(=O)[C@@H](NC(=O)[C@@H](N)CS)C(C)C)C(=O)N[C@@H](CCCCN)C(=O)N[C@@H](CC(=O)O)C(N)=O [ZAPpY319] (H-CVYESP[pY]SDPEELKD-NH2) | 26000 ± 32000 | 0.6 ± 0.46 | – | – | –
10 | CGNKGRSGPLPPVPLGIA-NH2 [WAS334] | – | – | – | – | no titration curves could be generated
11 | CLDIQDKPPAPPMRNT-NH2 [PAK6] | – | – | – | – | no titration curves could be generated
